Experimental data published in patent publication US7868163B2, “Adenyl dinucleotides with antitumour activity and a method of preparing thereof” (Universita' Degli Studi Di Genova, priority 2005, dated 2011).
Read-outs that look alike come from different tables or passages of the source.

How the values were obtained:
[1] = system: CD38^− cells; assay: Uptake of extracellularly added dinucleotides in CD38- cells; assay type: in vitro ADME, human; details: 15 μM added extracellularly
[2] = Storage stability of purified lyophilised peaks; details: stored at −20° C., several months (approx. 6)
Protocol: The cyclase purified from A. polypoides was used for the production of the dinucleotides for structural and functional studies. In a total volume of 0.4 ml of 10 mM Tris-HCl, pH 7.0, 0.05 mg of purified cyclase were incubated with 1 mM cADPR (or NAD^+), 5 mM adenine and 2 mM MgCl2 at room temperature. cADPR or NAD^+ was added to the reaction mixture every 6 hours, while every 24 hours fresh cyclase was added and an aliquot of the incubation was deproteinised with TCA (5% final concentration) and analysed by HPLC (analytical phosphate) to monitor dinucleotide production. After 3-5 days, the resulting incubation was extracted with TCA and 250 μl aliquots were injected into an HPLC column (preparative phosphate). The P18, P24 and P31 peaks were collected, lyophilised in a RotoVapor, re-dissolved in deionised water and injected into an HPLC column (preparative formate). […] The purified peaks produced by Axinella cyclase were used in in vitro experiments on the various cell types described hereinafter, for the enzymatic production of mononucleotides and nucleosides (see below), as internal and external HPLC standards to identify the dinucleotides in cell extracts, and for detecting the absorption spectra stored in the liquid chromatograph library as standards.

[3] = system: HeLa-CD38^+ (whole cells); assay: Hydrolysis by CD38+ HeLa whole cells
Protocol: (§1) ADP-ribosyl cyclases from lower and higher Metazoa were incubated in the presence of 0.1 mM cADPR and 1 mM adenine at pH 7.4 in 10 mM Tris-HCl (A, B and C) or in PBS-glucose (D) at 22° C. (A and B) or at 37° C. (C and D) for 4 hours. Aliquots of the various incubations were deproteinised with TCA (trichloroacetic acid) and subjected to HPLC (analytical phosphate). Chromatograms representative of each incubation are shown. A. A. polypoides; B. A. californica; C. Human CD38 (recombinant); D. Human HeLa cells transfected with sense and antisense human CD38 (dashed chromatogram).
(§2) In table 1, the absolute values of the peak-forming and -hydrolysing activities are compared with the cADPR-forming and -hydrolysing activities for each enzyme. The activities are expressed as nmol/min/mg.

[4] = system: A. polypoides ADP-ribosyl cyclase; assay: Hydrolysis by purified Axinella polypoides ADP-ribosyl cyclase
Protocol: as §1, §2

[5] = system: Recombinant CD38; assay: Hydrolysis by recombinant CD38
Protocol: as §1, §2

[6] = target: T1, A. californica ADP-ribosyl cyclase (Aplysia californica, UniProt P29241); assay: Hydrolysis by Aplysia californica ADP-ribosyl cyclase; assay type: in vitro ADME; details: P18 to adenine and ADPR
T1 construct: The cyclase purified from the mollusc Aplysia californica was purchased from Sigma; purchased Sigma; host or cells: purified from the mollusc
T1 sequence (P29241 25-282): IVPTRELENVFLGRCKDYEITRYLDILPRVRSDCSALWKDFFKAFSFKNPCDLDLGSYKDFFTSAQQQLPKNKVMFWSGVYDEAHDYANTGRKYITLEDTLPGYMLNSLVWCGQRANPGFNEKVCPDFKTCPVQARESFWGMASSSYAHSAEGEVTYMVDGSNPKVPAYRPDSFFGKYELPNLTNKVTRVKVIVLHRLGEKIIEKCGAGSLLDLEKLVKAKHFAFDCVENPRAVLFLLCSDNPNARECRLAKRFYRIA
Protocol: (A and B) or at 37° C. (C and D) for 4 hours. […] Chromatograms representative of each incubation are shown. A. A. polypoides; B. A. californica; C.
The activities are expressed as nmol/min/mg.

[7] = system: CFC (colony forming cells); assay: CFC colony growth from cord blood mononuclear cells in semi-solid medium; assay type: cell-based, human; details: Homo sapiens; 24 hours incubation of cord blood mononuclear cells, colonies counted after 2 weeks; read-out: IC50, inhibition of CFC colony growth
Protocol: Mononuclear cells isolated from cord blood were incubated in the presence of various concentrations of P18 (▴), P24 (▪) and the iso-adenosine units resulting from the enzymatic digestion of P18 (Δ) and P24 (□). After 24 hours, aliquots of cells (1-2×10^4) were seeded in semi-solid medium to allow for colony growth. Results are expressed as percentage of inhibition of colony growth compared with controls, represented by cells incubated with the same dilution of chromatographic buffer as present in the HPLC-purified compounds. The IC50 values were obtained from the logarithmic regression curves (R≧0.97). The results shown in this figure are the mean from at least three different experiments.
Mononuclear cells were isolated from cord blood (CB MNC) by a density gradient, washed by centrifugation and resuspended in complete medium (Mosmann, T. (1983) J. Immunol. Methods 65, 55-63). Cells (10^6/ml) were incubated for 24 hours in complete medium in the presence of different dinucleotides at concentrations comprised between 20 and 0.4 μM. Then, aliquots of cells (1-2×10^4) were seeded in semi-solid medium, supplemented with haemopoietic growth factors (Methocult, Stem Cell Technologies, Vancouver, BC), in order to allow colonies to develop. After 2 weeks in culture, the colonies which were grown were microscopically identified according to standard criteria (CFU-E, CFU-GM and CFU-GEM) and counted: each colony identifies a colony forming cell (CFC).

Nc1ncnc2c1ncn2[C@@H]1O[C@H](CO[P@](=O)(O)O[P@](=O)(O)OC[C@H]2O[C@@H](n3cnc4c(N)ncnc43)[C@H](O)[C@@H]2O)[C@@H](O)[C@H]1O [P31, diadenosine diphosphate, reference compound]
rate of increase of intracellular concentration (uptake) [1]: approx. 2.4 pmol/min/mg
degradation on storage [2]: no dinucleotide degradation was observed
hydrolysis activity ([3]; HeLa-CD38^+ whole cells, P18 and P24 to adenine and ADPR): 0.15 nmol/min/mg

N=c1c2ncn3c2ncn1[C@@H]1O[C@H](COP(=O)(O)OP(=O)(O)OC[C@H]2O[C@@H]3[C@H](O)[C@@H]2O)[C@@H](O)[C@H]1O [cADPR, cyclic ADP-ribose, reference compound]
hydrolysis activity [4]: 170 nmol/min/mg
hydrolysis activity [5]: 308 nmol/min/mg
hydrolysis activity [6]: 770 nmol/min/mg
hydrolysis activity [3]: 0.49 nmol/min/mg

Nc1c2ncnc-2ncn1[C@@H]1O[C@H](CO)[C@@H](O)[C@H]1O [iso-adenosine from P18, 1-β-D-ribofuranosyladenine]
IC50 [7]: 37 µM

Nc1ncn([C@@H]2O[C@H](CO)[C@@H](O)[C@H]2O)c2ncnc1-2 [iso-adenosine from P24, 3-β-ribofuranosyladenine]
IC50 [7]: 5 µM
